In brackets after ≈: the same amount, converted by molar mass. Where two headings read alike, the source gives them in different places.
T1: Staphylococcus aureus ClpP (Staphylococcus aureus), Q2G036
T1 chain: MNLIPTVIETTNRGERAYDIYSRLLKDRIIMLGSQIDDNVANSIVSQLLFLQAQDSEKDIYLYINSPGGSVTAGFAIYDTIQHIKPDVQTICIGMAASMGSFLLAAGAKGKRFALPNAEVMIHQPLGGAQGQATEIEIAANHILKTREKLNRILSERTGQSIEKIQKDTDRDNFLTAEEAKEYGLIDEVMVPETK

B1: Staphylococcus aureus ClpP, Q2G036 1-195 (enzyme)
chain: T1 chain

What was measured:
[1] = test system: T2, Staphylococcus aureus XJ009; assay: microbe, parasite or virus in culture; parameters: species or system Staphylococcus aureus strains; Minimum inhibitory concentration, growth inhibition of S. aureus strains in culture; conditions: XJ009, read-out: MIC
T2 construct: XJ009
From the text: (§1) Given our species-specific activators suppress the growth of S. aureus 8325-4, we then tested the antistaphylococcal spectrum of (R)- and (S)-ZG197 against a panel of S. aureus strains, including the Newman strain and multidrug-resistant MRSA strains. The USA300, NRS-1, NRS-70, NRS-100, NRS-108, and NRS-271 MRSA strains were collected from the Network on Antimicrobial Resistance in S. aureus (Supplementary Table 2). […] We also tested the antibacterial effects of our activators on five hospital-acquired, multidrug-resistant MRSA isolates in China, including XJ009, XJ036, XJ049, XJ051, and XJ052 (Supplementary Table 2). […] We next performed a minimum inhibitory concentration (MIC) assay in [compound left out] culture to determine the antibacterial effects of our activators on the S. aureus 8325-4 strain. […] To dissect whether our activators’ antistaphylococcal activity depends on ClpP in S. aureus, we determined the inhibitory effects of our activators on the ΔclpP mutant and the complemented clpP or clpPI91W mutant strains, respectively (Fig. 5a). The selective (R)- and (S)-ZG197 activators or the global activators ICG-001 and ONC212 minimally suppress the growth of ΔclpP mutant strain, and all the MICs are observed to be over 256 μg/mL. The antibacterial phenotype can be rescued in the complemented clpP strain in the presence of ClpP activators.

[2] = test system: T3, Staphylococcus aureus XJ036; assay: microbe, parasite or virus in culture; parameters: species or system Staphylococcus aureus strains; Minimum inhibitory concentration, growth inhibition of S. aureus strains in culture; conditions: XJ036, read-out: MIC
T3 construct: XJ036
From the text: as §1

[3] = test system: T4, Staphylococcus aureus Newman; assay: microbe, parasite or virus in culture; parameters: species or system Staphylococcus aureus strains; Minimum inhibitory concentration, growth inhibition of S. aureus strains in culture; conditions: NEWMAN, read-out: MIC
T4 construct: Newman
From the text: as §1

[4] = test system: T5, Staphylococcus aureus USA300 LAC; assay: microbe, parasite or virus in culture; parameters: species or system Staphylococcus aureus strains; Minimum inhibitory concentration, growth inhibition of S. aureus strains in culture; conditions: USA300, read-out: MIC
T5 construct: USA300 LAC
From the text: as §1

[5] = test system: T6, Staphylococcus aureus XJ049; assay: microbe, parasite or virus in culture; parameters: species or system Staphylococcus aureus strains; Minimum inhibitory concentration, growth inhibition of S. aureus strains in culture; conditions: XJ049, read-out: MIC
T6 construct: XJ049
From the text: as §1

[6] = test system: T7, Staphylococcus aureus XJ051; assay: microbe, parasite or virus in culture; parameters: species or system Staphylococcus aureus strains; Minimum inhibitory concentration, growth inhibition of S. aureus strains in culture; conditions: XJ051, read-out: MIC
T7 construct: XJ051
From the text: as §1

[7] = test system: T8, Staphylococcus aureus NRS1; assay: microbe, parasite or virus in culture; parameters: species or system Staphylococcus aureus strains; Minimum inhibitory concentration, growth inhibition of S. aureus strains in culture; conditions: NRS1, read-out: MIC
T8 construct: NRS1
From the text: as §1

[8] = test system: T9, Staphylococcus aureus NRS100; assay: microbe, parasite or virus in culture; parameters: species or system Staphylococcus aureus strains; Minimum inhibitory concentration, growth inhibition of S. aureus strains in culture; conditions: NRS100, read-out: MIC
T9 construct: NRS100
From the text: as §1

[9] = test system: T10, Staphylococcus aureus NRS108; assay: microbe, parasite or virus in culture; parameters: species or system Staphylococcus aureus strains; Minimum inhibitory concentration, growth inhibition of S. aureus strains in culture; conditions: NRS108, read-out: MIC
T10 construct: NRS108
From the text: as §1

[10] = test system: T11, Staphylococcus aureus NRS70; assay: microbe, parasite or virus in culture; parameters: species or system Staphylococcus aureus strains; Minimum inhibitory concentration, growth inhibition of S. aureus strains in culture; conditions: NRS70, read-out: MIC
T11 construct: NRS70
From the text: as §1

[11] = test system: T12, Staphylococcus aureus XJ052; assay: microbe, parasite or virus in culture; parameters: species or system Staphylococcus aureus strains; Minimum inhibitory concentration, growth inhibition of S. aureus strains in culture; conditions: XJ052, read-out: MIC
T12 construct: XJ052
From the text: as §1

[12] = test system: T13, Staphylococcus aureus NRS271; assay: microbe, parasite or virus in culture; parameters: species or system Staphylococcus aureus strains; Minimum inhibitory concentration, growth inhibition of S. aureus strains in culture; conditions: NRS271, read-out: MIC
T13 construct: NRS271
From the text: as §1

SaClpPI91W = target: T14, SaClpPI91W (Staphylococcus aureus, UniProt Q2G036, I91W); assay: ITC; also DSF, CETSA, alpha-casein hydrolysis; type: binding
T14 construct: gene clpP

[13] = target: T15, SaClpP (Staphylococcus aureus ClpP) (Staphylococcus aureus, UniProt Q2G036); assay: ITC; also BLI (Kd […]), DSF, CETSA, X-ray crystal structure, alpha-casein hydrolysis EC50 […]; type: binding
[14] = target: T15, SaClpP (Staphylococcus aureus ClpP); assay: ITC; also BLI (Kd […]), DSF, CETSA, X-ray crystal structure; type: binding
[15] = test system: T3, Staphylococcus aureus XJ036; assay: microbe, parasite or virus in culture; parameters: species or system Staphylococcus aureus strains; Minimum inhibitory concentration, growth inhibition of S. aureus strains in culture; conditions: XJ036
From the text: as §1, with “liquid” for “[compound left out]”

[16] = test system: T6, Staphylococcus aureus XJ049; assay: microbe, parasite or virus in culture; parameters: species or system Staphylococcus aureus strains; Minimum inhibitory concentration, growth inhibition of S. aureus strains in culture; conditions: XJ049
From the text: as §1, with “liquid” for “[compound left out]”

[17] = test system: T7, Staphylococcus aureus XJ051; assay: microbe, parasite or virus in culture; parameters: species or system Staphylococcus aureus strains; Minimum inhibitory concentration, growth inhibition of S. aureus strains in culture; conditions: XJ051
From the text: as §1, with “liquid” for “[compound left out]”

[18] = test system: T12, Staphylococcus aureus XJ052; assay: microbe, parasite or virus in culture; parameters: species or system Staphylococcus aureus strains; Minimum inhibitory concentration, growth inhibition of S. aureus strains in culture; conditions: XJ052
From the text: as §1, with “liquid” for “[compound left out]”

[19] = target: T1, Staphylococcus aureus ClpP …; assay: crystal structure; SaClpP (10 mg/mL) with 5-fold ZG180, sitting drop vapor diffusion at 16 °C, 30% 2-methyl-2,4-pentanediol, 0.1 M sodium acetate/HCl pH 8.0, 20 mM calcium chloride; 1.90 Å; conditions: remark: other sources report otherwise

| Molecule | MIC [1] | MIC [2] | MIC [3] | MIC [4] | MIC [5] | MIC [6] | MIC [7] | MIC [8] | MIC [9] | MIC [10] | MIC [11] | MIC [12] | other results |
| --- | --- | --- | --- | --- | --- | --- | --- | --- | --- | --- | --- | --- | --- |
| CC[C@H](C)[C@H]1C(=O)N([C@H](C)c2cccc3ccccc23)C[C@@H]2N(C(=O)NCCCC(F)(F)F)CCC(=O)N12 [(R)-ZG197] | 1 µg/mL (≈ 1.88 µM) | 1 µg/mL (≈ 1.88 µM) | 0.5 µg/mL (≈ 0.939 µM) | 0.5 µg/mL (≈ 0.939 µM) | 0.5 µg/mL (≈ 0.939 µM) | 0.5 µg/mL (≈ 0.939 µM) | 2 µg/mL (≈ 3.76 µM) | 0.5 µg/mL (≈ 0.939 µM) | 0.5 µg/mL (≈ 0.939 µM) | 0.5 µg/mL (≈ 0.939 µM) | 1 µg/mL (≈ 1.88 µM) | 2 µg/mL (≈ 3.76 µM) | Kd (SaClpPI91W): 0.93 ± 0.2 µM; Kd [13]: 2.5 ± 0.2 µM |
| CC[C@@H](C)[C@H]1C(=O)N([C@@H](C)c2cccc3ccccc23)C[C@@H]2N(C(=O)NCCCC(F)(F)F)CCC(=O)N12 [(S)-ZG197] | 8 µg/mL (≈ 15 µM) | 4 µg/mL (≈ 7.51 µM) | 2 µg/mL (≈ 3.76 µM) | 8 µg/mL (≈ 15 µM) | 8 µg/mL (≈ 15 µM) | 4 µg/mL (≈ 7.51 µM) | 8 µg/mL (≈ 15 µM) | 2 µg/mL (≈ 3.76 µM) | 4 µg/mL (≈ 7.51 µM) | 4 µg/mL (≈ 7.51 µM) | 4 µg/mL (≈ 7.51 µM) | 4 µg/mL (≈ 7.51 µM) | Kd [14]: 5 ± 0.3 µM |
| CCC[C@@H]1C[C@@H](C(=O)N[C@@H]([C@H]2O[C@H](SC)[C@H](O)[C@@H](O)[C@H]2O)[C@H](C)Cl)N(C)C1 [Clindamycin] |  | 0.13 µg/mL (≈ 0.306 µM) |  |  |  | 0.06 µg/mL (≈ 0.141 µM) |  |  |  |  |  |  |  |
| CC[C@H]1OC(=O)[C@H](C)[C@@H](O[C@H]2C[C@@](C)(OC)[C@@H](O)[C@H](C)O2)[C@H](C)[C@@H](O[C@@H]2O[C@H](C)C[C@H](N(C)C)[C@H]2O)[C@](C)(O)C[C@@H](C)C(=O)[C@H](C)[C@@H](O)[C@]1(C)O [Erythromycin] |  | 0.25 µg/mL (≈ 0.341 µM) |  | 16 µg/mL (≈ 21.8 µM) |  | 32 µg/mL (≈ 43.6 µM) |  | 0.06 µg/mL (≈ 0.0818 µM) |  |  |  | 0.5 µg/mL (≈ 0.681 µM) |  |
| CNC(C)[C@@H]1CC[C@@H](N)[C@@H](O[C@H]2[C@H](O)[C@@H](O[C@H]3OC[C@](C)(O)[C@H](NC)[C@H]3O)[C@H](N)C[C@@H]2N)O1 (stereo partly drawn) [Gentamicin] |  |  |  |  |  |  |  |  |  |  |  |  | MIC [15]: 0.25 µg/mL (≈ 0.523 µM); MIC [16]: 32 µg/mL (≈ 67 µM); MIC [17]: 64 µg/mL (≈ 134 µM); MIC [18]: 64 µg/mL (≈ 134 µM) |
| CCn1cc(C(=O)O)c(=O)c2cc(F)c(N3CCNCC3)cc21 [Norfloxacin] | 0.5 µg/mL (≈ 1.57 µM) | 64 µg/mL (≈ 200 µM) |  |  |  | 64 µg/mL (≈ 200 µM) |  |  |  |  |  |  |  |
| O=C1C2=C(CCN(Cc3ccccc3)C2)N2CCN=C2N1Cc1ccc(C(F)(F)F)cc1 [ONC212] | 0.5 µg/mL (≈ 1.14 µM) | 0.25 µg/mL (≈ 0.568 µM) | 0.25 µg/mL (≈ 0.568 µM) | 0.5 µg/mL (≈ 1.14 µM) | 0.25 µg/mL (≈ 0.568 µM) | 1 µg/mL (≈ 2.27 µM) | 1 µg/mL (≈ 2.27 µM) | 0.5 µg/mL (≈ 1.14 µM) | 0.5 µg/mL (≈ 1.14 µM) | 0.25 µg/mL (≈ 0.568 µM) | 0.25 µg/mL (≈ 0.568 µM) | 0.5 µg/mL (≈ 1.14 µM) |  |
| Cc1onc(-c2ccccc2)c1C(=O)N[C@@H]1C(=O)N2[C@@H]1SC(C)(C)[C@@H]2C(=O)O [Oxacillin] | 4 µg/mL (≈ 9.96 µM) | 1 µg/mL (≈ 2.49 µM) | 0.1 µg/mL (≈ 0.249 µM) |  |  |  |  | 0.1 µg/mL (≈ 0.249 µM) | 0.5 µg/mL (≈ 1.25 µM) | 2 µg/mL (≈ 4.98 µM) |  |  |  |
| CN(C)[C@@H]1C(O)=C(C(N)=O)C(=O)[C@@]2(O)C(O)=C3C(=O)c4c(O)cccc4[C@@](C)(O)[C@H]3C[C@@H]12 [Tetracycline] |  |  |  | 16 µg/mL (≈ 36 µM) |  |  |  |  |  | 0.06 µg/mL (≈ 0.135 µM) |  | 2.5 µg/mL (≈ 5.63 µM) |  |
| B1 |  |  |  |  |  |  |  |  |  |  |  |  | stoichiometry N [19]: 14 |

— PMC9663597, “Anti-infective therapy using species-specific activators of Staphylococcus aureus ClpP” (Nature Communications, 2022)
